Where a SMILES comes first, the peptide text is derived from it. [ ]: non-standard residue; d: D form. The star is where a group is joined. DOTA = O=C(O)CN1CCN(CC(=O)O)CCN(CC(=O)*)CCN(CC(=O)O)CC1; 1Nal = N[C@@H](Cc1cccc2ccccc12)C(=O)O; NMeNle = CCCC[C@H](NC)C(=O)O
Assays:
[1] = biodistribution: uptake in normal tissues; assay type: in vivo, athymic BALB/c nude mice; conditions: female, athymic BALB/c nude, mouse, blood, lung and heart, iv, total radioactivity; 1 or 4 h p.i.; read-out: unspecific tissue uptake in blood, lung and heart
Description: Biodistribution studies evaluating the tumour uptake of the radiolabelled inventive CCK2R targeting peptide analogues were performed in 7-week-old female athymic BALB/c nude mice (Charles River, Sulzfeld, Germany). All animal experiments were conducted in compliance with the Austrian animal protection laws and with the approval of the Austrian Ministry of Science. For the induction of tumour xenografts, A431-CCK2R and A431-mock cells were injected subcutaneously in the right and left flank respectively (2 million cells in 200 μl). When tumours had reached a size of approximately 0.2 ml biodistribution studies were carried out. Groups of 4 mice were injected intravenously via a lateral tail vein with the peptidomimetics of the present invention, labelled with ^111In (approximately 0.2 MBq and 0.02 nmol peptidomimetic), with ^68Ga (approximately 0.8 MBq and 0.02-0.03 nmol peptidomimetic), with ^177Lu (approximately 0.5 MBq and 0.02 nmol peptidomimetic) or with ^99mTc (approximately 0.3 MBq and 0.02 nmol peptidomimetic). After a time period of 1 or 4 h post-injection (p.i.) the animals were sacrificed by cervical dislocation, tumours and other tissues (blood, lung, heart, muscle, bone, spleen, intestine, liver, kidneys, stomach, pancreas) were removed, weighed, and their radioactivity measured in the gamma counter. Results were expressed as percentage of injected activity per gram tissue (% IA/g) and tumour to organ activity ratios were calculated from the activity measured in the dissected tissues. In FIG. 4 the results of the biodistribution studies at 4 h p.i. are summarized for the ^111In-labelled peptidomimetics of the present invention in comparison with ^111In-DOTA-MGS1 and ^111In-DOTA-MGS4 (Klingler M et al., Eur J Nucl Med Mol Imaging 2017, 44: S228). In FIG. 5 the results for the model peptidomimetics of the present invention, DOTA-MGS5 and HYNIC-MGS5, radiolabelled with different radiometals are shown for different time points of 1 or 4 h p.i. […] The uptake in A431-mock tumour xenografts with values <1% IA/g was very low confirming the high receptor-specific tumour uptake. […] A combination of high stability and increased protein binding in vivo seems therefore to result in an optimal protection of the radioligand against enzymatic degradation in blood allowing reaching an extremely high tumour uptake.

serum proteins = test: protein binding to serum proteins (Sephadex G-50 size-exclusion chromatography); assay type: in vitro ADME; conditions: 37° C.; for fraction unbound at 4 h, 500 pmol/mL / fraction unbound at 24 h, 500 pmol/mL: fresh human serum; for fraction unbound at 4 h, 500 pmol/mL: read-out: Percentage of radioligand bound to serum proteins after 4 h incubation (converted); for fraction unbound at 24 h, 500 pmol/mL: read-out: Percentage of radioligand bound to serum proteins after 24 h incubation (converted); for Percentage of radioligand bound to serum proteins after 24 h incubation: human serum
Description: Additionally, protein binding to serum proteins was investigated. For this purpose the ^111In-labelled peptidomimetics were incubated in duplicates in fresh human serum at 37° C. (500 pmol/mL) and analyzed after 4 and 24 h by Sephadex G-50 size-exclusion chromatography (GE Healthcare Illustra, Little Chalfont, UK). The percentage of protein binding was determined by measuring the column and the eluate in a 2480 Wizard 2 automatic gamma-counter (Perkin Elmer Life Sciences and Analytical Sciences, Turku, F).

[2] = stability in vivo (radio-HPLC of blood sample); conditions: BALB/c mice, i.v.
Description: To further characterise the stability of the radiolabelled peptidomimetics in vivo, metabolic studies were carried out in 5-6-week-old female BALB/c mice (Charles River, Sulzfeld, Germany) injected intravenously with the ^111In- and […] peptidomimetics. All animal experiments were conducted in compliance with the Austrian animal protection laws and with the approval of the Austrian Ministry of Science. To allow monitoring of the metabolites by radio-HPLC, mice were injected with a higher amount of radioactivity (5-15 MBq ^111In and 20-40 MBq ^177Lu, corresponding to 1-2 nmol total peptide) through a lateral tail vein and euthanized by cervical dislocation 10 or 30 min post injection (p.i.). A sample of blood was collected and the degradation was assessed by radio-HPLC.

| tissue uptake [1] [%ID/g] | fraction unbound at 4 h, 500 pmol/mL (serum proteins) | fraction unbound at 24 h, 500 pmol/mL (serum proteins) | Percentage of radioligand bound to serum proteins after 24 h incubation (serum proteins) [%] | intact radioligand present in the blood at 10 min p.i. [2] [%] | SMILES | intact radioligand present in the blood at 30 min p.i. [2] [%] |
| --- | --- | --- | --- | --- | --- | --- |
| – | 0.683 | 0.654 | ~30 | 88.4±0.4 | CCCC[C@@H](C(=O)N[C@@H](CC(=O)O)C(=O)N[C@@H](Cc1ccc2ccccc2c1)C(N)=O)N(C)C(=O)[C@H](Cc1c[nH]c2ccccc12)NC(=O)CNC(=O)[C@H](Cc1ccc(O)cc1)NC(=O)[C@H](C)NC(=O)[C@@H](CCC(=O)O)NC(=O)CN1CCN(CC(=O)O)CCN(CC(=O)O)CCN(CC(=O)O)CC1 [^111In-DOTA-MGS5-2, metal not drawn] | – |
| – | 0.8 | 0.712 | – | – | CSCC[C@H](NC(=O)[C@H](Cc1c[nH]c2ccccc12)NC(=O)CNC(=O)[C@H](Cc1ccc(O)cc1)NC(=O)[C@H](C)NC(=O)[C@@H](CCC(=O)O)NC(=O)CN1CCN(CC(=O)O)CCN(CC(=O)O)CCN(CC(=O)O)CC1)C(=O)N[C@@H](CC(=O)O)C(=O)N[C@@H](Cc1cccc2ccccc12)C(N)=O [^111In-DOTA-MGS1, ^111In-DOTA-DGlu-Ala-Tyr-Gly-Trp-Met-Asp-1Nal-NH2, metal not drawn, reference compound] ({DOTA}-[dE]AYGWMD[1Nal]-NH2) | – |
| – | – | – | – | 80.5 | CCCC[C@@H](C(=O)N[C@@H](CC(=O)O)C(=O)N[C@@H](Cc1cccc2ccccc12)C(N)=O)N(C)C(=O)[C@H](Cc1c[nH]c2ccccc12)NC(=O)CNC(=O)[C@H](Cc1ccc(O)cc1)NC(=O)[C@@H]1CCCN1C(=O)[C@@H](CCC(=O)O)NC(=O)CN1CCN(CC(=O)O)CCN(CC(=O)O)CCN(CC(=O)O)CC1 [^177Lu-DOTA-MGS8, metal not drawn] ({DOTA}-[dE]PYGW[NMeNle]D[1Nal]-NH2) | 56.8 |
| – | 0.59 | 0.557 | – | 82.7±3.3 | CCCC[C@@H](C(=O)N[C@@H](CC(=O)O)C(=O)N[C@@H](Cc1cccc2ccccc12)C(N)=O)N(C)C(=O)[C@H](Cc1c[nH]c2ccccc12)NC(=O)CNC(=O)[C@H](Cc1ccc(O)cc1)NC(=O)[C@H](C)NC(=O)[C@@H](CCC(=O)O)NC(=O)CN1CCN(CC(=O)O)CCN(CC(=O)O)CCN(CC(=O)O)CC1 [^111In-DOTA-MGS5, metal not drawn] | – |
| – | 0.681 | 0.602 | ~30 | 98.4±0.1 | CCCC[C@@H](C(=O)N[C@@H](CC(=O)O)C(=O)N(C)[C@@H](Cc1cccc2ccccc12)C(N)=O)N(C)C(=O)[C@H](Cc1c[nH]c2ccccc12)NC(=O)CNC(=O)[C@H](Cc1ccc(O)cc1)NC(=O)[C@H](C)NC(=O)[C@@H](CCC(=O)O)NC(=O)CN1CCN(CC(=O)O)CCN(CC(=O)O)CCN(CC(=O)O)CC1 [^111In-DOTA-MGS11, metal not drawn] | – |
| – | 0.911 | 0.881 | ~12 | – | CCCC[C@@H](C(=O)N[C@@H](CC(=O)O)C(=O)N(C)[C@@H](Cc1ccccc1)C(N)=O)N(C)C(=O)[C@H](Cc1c[nH]c2ccccc12)NC(=O)CNC(=O)[C@H](Cc1ccc(O)cc1)NC(=O)[C@H](C)NC(=O)[C@@H](CCC(=O)O)NC(=O)CN1CCN(CC(=O)O)CCN(CC(=O)O)CCN(CC(=O)O)CC1 [^111In-DOTA-MGS4, ^111In-DOTA-DGlu-Ala-Tyr-Gly-Trp-(N-Me)Nle-Asp-(N-Me)Phe-NH2, metal not drawn, reference compound] | – |

Further lines, the molecule ahead of its results:

| SMILES | tissue uptake [1] [%ID/g] | fraction unbound at 4 h, 500 pmol/mL (serum proteins) | fraction unbound at 24 h, 500 pmol/mL (serum proteins) | Percentage of radioligand bound to serum proteins after 24 h incubation (serum proteins) [%] | intact radioligand present in the blood at 10 min p.i. [2] [%] | intact radioligand present in the blood at 30 min p.i. [2] [%] |
| --- | --- | --- | --- | --- | --- | --- |
| CCCC[C@@H](C(=O)N[C@@H](CC(=O)O)C(=O)N[C@@H](Cc1cccc2ccccc12)C(N)=O)N(C)C(=O)[C@H](Cc1c[nH]c2ccccc12)NC(=O)CNC(=O)[C@H](Cc1ccc(O)cc1)NC(=O)[C@H](C)NC(=O)[C@@H](CCC(=O)O)NC(=O)CN1CCN(CC(=O)O)CCN(CC(=O)O)CCN(CC(=O)O)CC1 [^68Ga-DOTA-MGS5, metal not drawn] | 1 to 2 | – | – | – | – | – |
| CCCC[C@@H](C(=O)N[C@@H](CC(=O)O)C(=O)N[C@@H](Cc1cccc2ccccc12)C(N)=O)N(C)C(=O)[C@H](Cc1c[nH]c2ccccc12)NC(=O)CNC(=O)[C@@H]1CCCN1C(=O)[C@H](Cc1ccc(O)cc1)NC(=O)[C@@H](CCC(=O)O)NC(=O)CN1CCN(CC(=O)O)CCN(CC(=O)O)CCN(CC(=O)O)CC1 [^111In-DOTA-MGS10, metal not drawn] ({DOTA}-[dE]YPGW[NMeNle]D[1Nal]-NH2) | – | 0.433 | – | – | 82.3±1.8 | – |
| CCCC[C@@H](C(=O)N[C@@H](CC(=O)O)C(=O)N[C@@H](Cc1cccc2ccccc12)C(N)=O)N(C)C(=O)[C@H](Cc1c[nH]c2ccccc12)NC(=O)CNC(=O)[C@H](Cc1ccc(O)cc1)NC(=O)[C@@H]1CCCN1C(=O)[C@@H](CCC(=O)O)NC(=O)CN1CCN(CC(=O)O)CCN(CC(=O)O)CCN(CC(=O)O)CC1 [^111In-DOTA-MGS8, metal not drawn] ({DOTA}-[dE]PYGW[NMeNle]D[1Nal]-NH2) | – | – | – | – | 80.0±5.2 | – |
| CCCC[C@H](NC(=O)[C@H](Cc1c[nH]c2ccccc12)NC(=O)CNC(=O)[C@H](Cc1ccc(O)cc1)NC(=O)[C@H](C)NC(=O)[C@@H](CCC(=O)O)NC(=O)[C@@H](CCC(=O)O)NC(=O)[C@@H](CCC(=O)O)NC(=O)[C@@H](CCC(=O)O)NC(=O)[C@@H](CCC(=O)O)NC(=O)[C@@H](CCC(=O)O)NC(=O)CN1CCN(CC(=O)O)CCN(CC(=O)O)CCN(CC(=O)O)CC1)C(=O)N[C@@H](CC(=O)O)C(=O)N[C@@H](Cc1ccccc1)C(N)=O [^177Lu-PP-F11N, metal not drawn, reference compound] | – | – | – | – | 22.3 | 12.7 |
| CCCC[C@@H](C(=O)N[C@@H](CC(=O)O)C(=O)N[C@@H](Cc1cccc2ccccc12)C(N)=O)N(C)C(=O)[C@H](Cc1c[nH]c2ccccc12)NC(=O)CNC(=O)[C@H](Cc1ccc(O)cc1)NC(=O)[C@H](C)NC(=O)[C@@H](CCC(=O)O)NC(=O)CN1CCN(CC(=O)O)CCN(CC(=O)O)CCN(CC(=O)O)CC1 [^177Lu-DOTA-MGS5, metal not drawn] | – | – | – | – | 85.9 | 77.0 |
| CCCC[C@@H](C(=O)N[C@@H](CC(=O)O)C(=O)N[C@@H](Cc1cccc2ccccc12)C(N)=O)N(C)C(=O)[C@H](Cc1c[nH]c2ccccc12)NC(=O)[C@@H]1CCCN1C(=O)[C@H](Cc1ccc(O)cc1)NC(=O)[C@H](C)NC(=O)[C@@H](CCC(=O)O)NC(=O)CN1CCN(CC(=O)O)CCN(CC(=O)O)CCN(CC(=O)O)CC1 [^111In-DOTA-MGS12, metal not drawn] ({DOTA}-[dE]AYPW[NMeNle]D[1Nal]-NH2) | – | – | 0.541 | – | – | – |
| CSCC[C@H](NC(=O)[C@H](Cc1c[nH]c2ccccc12)NC(=O)CNC(=O)[C@H](Cc1ccc(O)cc1)NC(=O)[C@H](C)NC(=O)[C@@H](CCC(=O)O)NC(=O)[C@@H](CCC(=O)O)NC(=O)[C@@H](CCC(=O)O)NC(=O)[C@@H](CCC(=O)O)NC(=O)[C@@H](CCC(=O)O)NC(=O)[C@@H](CCC(=O)O)NC(=O)CN1CCN(CC(=O)O)CCN(CC(=O)O)CCN(CC(=O)O)CC1)C(=O)N[C@@H](CC(=O)O)C(=O)N[C@@H](Cc1ccccc1)C(N)=O [^177Lu-PP-F11, metal not drawn, reference compound] | – | – | – | – | – | 5.5 |

From US12049518B2, “Pharmacokinetics and cholecystokinin-2 receptor (CCK2R) targeting for diagnosis and therapy” (Medizinische Universitat Innsbruck, priority 2017, dated 2024)
